Values joined by “and” are separate entries in the source; they are usually repeats but may differ in a detail not shown here. Identical values can stand only once.
Tests used:
Type in all cases: in vivo, human
[1] = test system: patients with PH-HFpEF; test: Serum BNP or NT-proBNP levels, I.V. to oral levosimendan transition study
Procedure: (§1) Methods: Patients with PH-HFpEF who were in the open label extension study of the HELP Trial for more than 18 months volunteered to enroll in this transition protocol. Patients were initiated with 1 mg/day of oral levosimendan 5-7 days after the last IV levosimendan infusion. The oral dose was increased every 2 weeks by 1 mg/day to a maximum of 4 mg/day over an 8 week period. The highest daily dose was determined by the investigator based on clinical assessments of symptoms and side effects. The primary safety endpoints were change in resting heart rate and blood pressure from baseline to final study visit and all other adverse events. Secondary efficacy endpoints included change in six-minute walk distance (6MWD), serum brain natriuretic peptide (BNP) or NT-proBNP levels, and quality of life as assessed by Kansas City Cardiomyopathy Questionnaire clinical summary score (KCCQ-CS) and overall summary score (KCCQ-OS) from baseline to final study visit. All comparisons were the baseline and at week 6-8 measurements at the highest daily dose of levosimendan.
(§2) • Change in six-minute walk distance (6MWD) from baseline to final study visit • Change in serum brain natriuretic peptide (BNP) or NT-proBNP levels from baseline to final study visit • Change in quality of life as assessed by Kansas City Cardiomyopathy Questionnaire clinical summary score (KCCQ-CS) and overall summary score (KCCQ-OS) from baseline to final study visit
(§3) All comparisons were the baseline and at week 6-8 measurements at the highest daily dose of levosimendan.

[2] = test system: patients with PH-HFpEF; test: Six-minute walk test (6MWT/6MWD), I.V. to oral levosimendan transition study (TNX-LVO-05 open label extension of HELP)
Source text: The initial HELP Study is described in PCT International Application Publication No. WO 2021/126884 and Burkhoff, et al. (2021) “Levosimendan improves hemodynamics and exercise tolerance in PH-HFpEF: results of the randomized placebo-controlled HELP trial,” the entire contents of each of which are incorporated by reference. […] Among the goals of the extension study was to determine the dose of oral levosimendan that could maintain the efficacy of the weekly I.V. infusions of levosimendan.
(§4) Once that dose is determined, the study is identical with respect to the protocol. Since the I.V. formulation is weight based, and bypasses issues of bioavailability that may be affected by drug absorption, a dose escalation strategy is being adopted, guided by the individual patient response and any adverse events that may occur. Thus, the measurement of a six-minute walk test and patient questionnaire before and after the transition was to ensure that the patient continues to benefit. In addition, the monitoring of the patients' blood pressure and heart rate each day was to ensure that the oral dose remains safe.
(§5) The following considerations justified amending the TNX-LVO-05 study protocol: • 1. The amended TNX-LVO-05 protocol included the same patients enrolled in the original study. This was not a new study of the patients currently enrolled. This was open label, with no blinding of patients or physicians, and no control group. • 2. The scope and purpose of the study was unchanged, with the exception that it offered the further extension of treatment allowed by the transition to oral therapy (See item #4). • 3. The amendment clearly delineated a stepwise and thoughtful titration of patients from their intravenous to oral levosimendan to ensure the safe and effective transition of their levosimendan regimen. • a. Patients were started on 1 mg daily, representing a dose generally less than half their total weekly weight-based dose regimen. • b. Patients were titrated based on tolerance to the daily levosimendan paying attention to their symptoms of PH-HFpEF, and special attention to specific adverse events of interest, heart rate and blood pressure. A daily diary captured patient vitals and symptoms to aid their physician in titrating patients at two-week intervals. • c. Patient response also was evaluated by clinical measures to provide the physician with additional information on the patient's response. • d. While most patients were expected to receive 2-3 mg daily at the conclusion of the transition study, the dose escalation strategy was included to allow all patients to realize the same benefit as they did from the I.V. formulation. • e. To document the sustained efficacy of the oral formulation in these patients, patients had to undergo a six-minute walk test and patient questionnaire prior to and at the end of the transition study. • 4. The transition to oral levosimendan allowed for extension of the study from its initial two years to an additional three years. This offers these PH-HFpEF patients, with no other treatments available, to continue on a drug that they have responded to. • 5. The amendment required patients to sign a revised informed consent to ensure patients are completely informed concerning the transition amendment. Patients that preferred to continue with their weekly 24-hour I.V. regimen were allowed to continue through the initial two-year period of the study and then will be withdrawn.
Methods: Patients with PH-HFpEF who were in the open label extension study of the HELP Trial for more than 18 months volunteered to enroll in this transition protocol. Patients were initiated with 1 mg/day of oral levosimendan 5-7 days after the last IV levosimendan infusion. The oral dose was increased every 2 weeks by 1 mg/day to a maximum of 4 mg/day over an 8 week period. The highest daily dose was determined by the investigator based on clinical assessments of symptoms and side effects. […]

[3] = test system: patients with PH-HFpEF; test: Kansas City Cardiomyopathy Questionnaire (KCCQ), I.V. to oral levosimendan transition study
Procedure: as §1, §2, §3

[4] = test system: patients with PH-HFpEF; test: Resting heart rate and systolic arterial blood pressure, I.V. to oral levosimendan transition study
Procedure: as §4, §5
as §1, with “All comparisons were the baseline and at week 6-8 measurements at the highest daily dose of levosimendan.” left out

[5] = oral levosimendan compared to weekly I.V. infusion
[6] = individual patients transitioned from weekly I.V. to oral levosimendan
[7] = baseline to final visit, oral levosimendan
[8] = baseline to final study visit (week 6-8), oral levosimendan 3-4 mg/day

SMILES: C[C@@H]1CC(=O)NN=C1c1ccc(NN=C(C#N)C#N)cc1 [levosimendan]
- change in NT-proBNP ([1]; n=7, baseline to final study visit, oral levosimendan): −239.4 (SD 548.1) pg/dl
- change in BNP ([1]; n=8, baseline to final study visit, oral levosimendan): −133.3 (SD 136.6) pg/dl
- improvement in BNP/NT-ProBNP biomarker measurements [1, 5]: 22%
- 6MW Change (BL vs Week 6 only) [2, 6]: −137 and 78 and −27 and 118 and −10 and −4 and 5 and −9 and −8 and 9 and −17 and 40 and 30 (2×) and 15 and −1
- 6MW Change (Baseline vs Week 6/8) [2, 6]: −15 and 78 and −27 and −10 and −31 and −4 and 24 and −23 and −112 and 9 and −17 and 30 (3×) and −1
- 6MWD Change from baseline to Week 6 - Oral, Maximum ([2]; n=16): 118
- 6MWD Change from baseline to Week 6 - Oral, Median ([2]; n=16): 2.0
- 6MWD Change from baseline to Week 6 - Oral, Minimum ([2]; n=16): −137
- 6MWD Week 6 - Oral, Maximum ([2]; n=16, oral levosimendan): 550 m
- 6MWD Week 6 - Oral, Mean ([2]; n=16, oral levosimendan): 302.0
- 6MWD Week 6 - Oral, Median ([2]; n=16, oral levosimendan): 292.0
- 6MWD Week 6 - Oral, Minimum ([2]; n=16, oral levosimendan): 91
- mean change in 6MWD ([2]; n=17, baseline to final study visit, oral levosimendan): 13.1 (SD±39.5) meters
- improvement in six minute walk distance [2, 5]: 32%
- KCCQ OVERALL SUMMARY, mean Δ [3, 7]: +3.7
- KCCQ PHYSICAL LIMITATION, mean Δ [3, 7]: +0.3
- KCCQ QUALITY OF LIFE, mean Δ [3, 7]: +4.2
- KCCQ SELF EFFICACY, mean Δ [3, 7]: −2.3
- KCCQ SOCIAL LIMITATION, mean Δ [3, 7]: +5.5
- KCCQ Symptom Burden, mean Δ [3, 7]: +6.3
- KCCQ Symptom Frequency, mean Δ [3, 7]: +3.1
- KCCQ Symptom Stability, mean Δ [3, 7]: +9.4
- KCCQ TOTAL SYMPTOM, mean Δ [3, 7]: +4.7
- mean KCCQ-CS score improvement ([3]; n=16, oral levosimendan): 2.5 points
- mean KCCQ-OS score improvement ([3]; n=16, oral levosimendan): 3.7 points
- mean KCCQ-TS score improvement ([3]; n=16, oral levosimendan): 4.7 points
- mean change in resting heart rate [4, 8]: 4.9 (SD±7.5) beats/min
- mean change in systolic arterial blood pressure [4, 8]: 4.1 (SD±12.6) mm Hg
- Heart Rate Change from Baseline to Week 6 Oral, Mean ([4]; n=18): 6.9
- Heart Rate Change from Baseline to Week 6 Oral, Median ([4]; n=18): 5.5
- Heart Rate Change from Baseline to Week 6 Oral, Minimum ([4]; n=18): −9
- SBP Change from baseline to Week 6 - Oral, Maximum ([4]; n=18): 34
- SBP Change from baseline to Week 6 - Oral, Mean ([4]; n=18): 4.1
- SBP Change from baseline to Week 6 - Oral, Median ([4]; n=18): 1.5
- SBP Change from baseline to Week 6 - Oral, Minimum ([4]; n=18): −15

Reference: patent publication US20250064799A1, “ORAL FORMULATIONS OF LEVOSIMENDAN FOR TREATING PULMONARY HYPERTENSION WITH HEART FAILURE WITH PRESERVED EJECTION FRACTION” (Tenax Therapeutics, Inc., priority 2021, published 2025)
